We go through 32 compounds from US10266526B2, “Substituted 1,2,3-triazoles as SMYD inhibitors for treating cancer” (EPIZYME, INC., priority 2014, dated 2019).

Sequence of SMYD3 (Q9H7B4 whole entry): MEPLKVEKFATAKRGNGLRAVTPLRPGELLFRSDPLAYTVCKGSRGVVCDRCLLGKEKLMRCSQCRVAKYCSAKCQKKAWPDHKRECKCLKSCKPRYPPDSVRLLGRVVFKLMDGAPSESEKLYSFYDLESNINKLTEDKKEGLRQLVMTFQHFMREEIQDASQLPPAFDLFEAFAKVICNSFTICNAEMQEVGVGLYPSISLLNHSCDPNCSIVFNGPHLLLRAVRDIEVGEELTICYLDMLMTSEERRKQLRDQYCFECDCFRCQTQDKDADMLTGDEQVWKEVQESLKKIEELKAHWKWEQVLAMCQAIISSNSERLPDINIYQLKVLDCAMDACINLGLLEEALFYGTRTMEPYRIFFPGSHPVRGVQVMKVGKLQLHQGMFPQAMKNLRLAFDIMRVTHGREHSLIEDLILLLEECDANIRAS

The first test deals with SMYD3 (Homo sapiens (Human), UniProt Q9H7B4). Nature of the test: SMYD3 biochemical assay (SMYD3 enzyme assay on MEKK2 protein substrate, 3H-SAM scintillation proximity assay). Conditions: Table 1A; average of n = 1 to n = 50; read-out: SMYD3 Biochem IC50. The method, boiled down:
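Native full-length human SMYD3, expressed in E. coli, was preincubated with compound for 30 min at room temperature in 25 mM Tris-Cl pH 8.0, 1 mM TCEP, 0.005% BSG and 0.005% Tween 20. ³H-SAM plus GST-MEKK2 then started the reaction. It was stopped with unlabeled SAM (100 uM final), and methylated MEKK2 was read by SPA.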
A general note: Scintillation proximity formats need no separation of bound from free tracer.
For `CCc1cccc(C(=O)N[C@H]2CCN(S(=O)(=O)CCCN)[C@H](C)C2)c1` (racemic) [compound 573, (±)-trans-N-(1-((3-aminopropyl)sulfonyl)-2-methylpiperidin-4-yl)-3-ethylbenzamide], the IC50 (as a rule, the concentration that gives 50% inhibition) is over 10 µM.

Still in this test, the particulars now being: read-out: SMYD3 Biochem IC50.
Take `Cn1ccnc1C(=O)N[C@H]1CC[C@H](N)CC1` [compound 337, N-((1r,4r)-4-aminocyclohexyl)-1-methyl-1H-imidazole-2-carboxamide]: the half-inhibitory concentration (IC50) is over 100 µM. On the same count and under the same terms, with `CC(NC(=O)c1ccn(C)n1)C1CCN(C(=O)[C@H](C)N)CC1` (stereo partly drawn) [compound 259, N-(1-(1-(L-alanyl)piperidin-4-yl)ethyl)-1-methyl-1H-pyrazole-3-carboxamide] the figure was over 100 µM; with `CC(NC(=O)C1=NNC(=O)CC1)C1CCN(C(=O)[C@H](C)N)CC1` (stereo partly drawn) [compound 311, N-(1-(1-(L-alanyl)piperidin-4-yl)ethyl)-6-oxo-1,4,5,6-tetrahydropyridazine-3-carboxamide], over 100 µM; with `Nc1cc(C(=O)N[C@H]2CC[C@H](N)CC2)ccn1` [compound 322, 2-amino-N-((1r,4r)-4-aminocyclohexyl)isonicotinamide], over 100 µM. As to `N[C@H]1CC[C@H](NC(=O)Cc2ccc3c(c2)CC(=O)N3)CC1` [compound 448, N-((1r,4r)-4-aminocyclohexyl)-2-(2-oxoindolin-5-yl)acetamide], the half-maximal inhibitory concentration (IC50) was over 100 µM. For the compound `Nc1ccc(C(=O)N[C@H]2CC[C@H](N)CC2)nc1` [compound 438, 5-amino-N-((1r,4r)-4-aminocyclohexyl)picolinamide], the IC50 is over 100 µM. Same read-out and setting: the figure for `Cc1cnc(C(=O)NC(C)C2CCN(C(=O)[C@H](C)N)CC2)cn1` (stereo partly drawn) [compound 185, N-(1-(1-(L-alanyl)piperidin-4-yl)ethyl)-5-methylpyrazine-2-carboxamide] is over 100 µM; for `N[C@H]1CC[C@H](NC(=O)c2c[nH]cn2)CC1` [compound 521, N-((1r,4r)-4-aminocyclohexyl)-1H-imidazole-4-carboxamide] it is over 50 µM.

For the compound `CC(NC(=O)c1cnccn1)C1CCN(C(=O)[C@H](C)N)CC1` (stereo partly drawn) [compound 205, N-(1-(1-(L-alanyl)piperidin-4-yl)ethyl)pyrazine-2-carboxamide], the half-inhibitory concentration (IC50) was over 100 µM.

Consider `CC(NC(=O)c1cc[n+]([O-])cc1)C1CCN(C(=O)[C@H](C)N)CC1` (stereo partly drawn) [compound 209, 4-((1-(1-(L-alanyl)piperidin-4-yl)ethyl)carbamoyl)pyridine 1-oxide], for which the IC50 was over 100 µM. On the same count and under the same terms, the figure for `NCCC(=O)N[C@H]1CC[C@H](NC(=O)c2cccc(F)n2)CC1` [compound 422, N-((1r,4r)-4-(3-aminopropanamido)cyclohexyl)-6-fluoropicolinamide] is over 100 µM; for `NCCC(=O)N[C@H]1CC[C@H](NC(=O)Cc2cccc(C(F)(F)F)c2)CC1` [compound 477, 3-amino-N-((1r,4r)-4-(2-(3-(trifluoromethyl)phenyl)acetamido)cyclohexyl)propanamide] it is 22.8 µM.

As to `CC(C)(CNC(=O)CN)CNS(=O)(=O)c1ccc2c(c1)CC(=O)N2` [compound 486, 2-amino-N-(2,2-dimethyl-3-((2-oxoindoline)-5-sulfonamido)propyl)acetamide], the IC50 amounted to 18.8 µM. For the compound `COc1cncc(C(=O)NC(C)C2CCN(C(=O)[C@H](C)N)CC2)n1` (stereo partly drawn) [compound 261, N-(1-(1-(L-alanyl)piperidin-4-yl)ethyl)-6-methoxypyrazine-2-carboxamide], the 50% inhibitory concentration (IC50) is over 100 µM.

Consider `Cc1n[nH]c(C)c1C(=O)N[C@H]1CC[C@H](N)CC1` [compound 182, N-((1r,4r)-4-aminocyclohexyl)-3,5-dimethyl-1H-pyrazole-4-carboxamide], for which the concentration for half-maximal inhibition (IC50) was over 100 µM.

Regarding `Cc1cnc(C(=O)N[C@H]2CC[C@H](N)CC2)s1` [compound 398, N-((1r,4r)-4-aminocyclohexyl)-5-methylthiazole-2-carboxamide], the concentration for half-maximal inhibition (IC50) is over 100 µM. Regarding `NCCC(=O)N[C@H]1CC[C@H](NC(=O)c2ccc(N3CCCC3)cc2)CC1` [compound 279, N-((1r,4r)-4-(3-aminopropanamido)cyclohexyl)-4-(pyrrolidin-1-yl)benzamide], the 50% inhibitory concentration (IC50) is 43.6 µM. Regarding `N[C@H]1CC[C@H](NC(=O)c2cc(=O)c3ccccc3o2)CC1` [compound 277, N-((1r,4r)-4-aminocyclohexyl)-4-oxo-4H-chromene-2-carboxamide], the IC50 was over 100 µM. Regarding `N[C@H]1CC[C@H](NC(=O)/C=C/c2c[nH]cn2)CC1` [compound 495, (E)-N-((1r,4r)-4-aminocyclohexyl)-3-(1H-imidazol-4-yl)acrylamide], the IC50 is over 100 µM. Turning to `Cc1nscc1C(=O)N[C@H]1CC[C@H](NC(=O)CCN)CC1` [compound 347, N-((1r,4r)-4-(3-aminopropanamido)cyclohexyl)-3-methylisothiazole-4-carboxamide], the 50% inhibitory concentration (IC50) is over 100 µM. Regarding `N[C@H]1CC[C@H](NC(=O)Cn2ccnc2)CC1` [compound 426, N-((1r,4r)-4-aminocyclohexyl)-2-(1H-imidazol-1-yl)acetamide], the IC50 was over 100 µM. Same read-out and setting: with `NCCC(=O)N[C@H]1CC[C@H](NC(=O)c2cc3ccccc3[nH]2)CC1` [compound 233, N-((1r,4r)-4-(3-aminopropanamido)cyclohexyl)-1H-indole-2-carboxamide] the figure was over 100 µM.

The test is the same for the next values; noted with them: read-out: SMYD3 Biochem IC50 (μM)*.
For `C[C@H](N)C(=O)NCCCCNC(=O)c1ccc2c(c1)CC(=O)N2` [compound 107, (S)-N-(4-(2-aminopropanamido)butyl)-2-oxoindoline-5-carboxamide], the half-maximal inhibitory concentration (IC50) worked out at 14 µM. The same measure, in the same setting: with `Cn1nc(O)cc1C(=O)NC1CCNCC1` [compound 69, 3-hydroxy-1-methyl-N-(piperidin-4-yl)-1H-pyrazole-5-carboxamide] the figure was 19.7 µM. Same read-out and setting: the figure for `CC(=O)Nc1ccc(S(=O)(=O)N2CCC(NC(=O)C3CCN(CC4CC4)CC3)CC2)cc1` [compound 12, N-(1-((4-acetamidophenyl)sulfonyl)piperidin-4-yl)-1-(cyclopropylmethyl)piperidine-4-carboxamide] is 45.9 µM; for `N[C@H]1CC[C@H](NC(=O)c2ccc(-c3ccccc3)cc2)CC1` [compound 155, N-((1r,4r)-4-aminocyclohexyl)-[1,1′-biphenyl]-4-carboxamide] it is 79.2 µM; for `N[C@H]1CC[C@H](NC(=O)c2cccc(CO)c2)CC1` [compound 26, N-((1r,4r)-4-aminocyclohexyl)-3-(hydroxymethyl)benzamide] it is 86 µM. For `N[C@H]1CC[C@H](NC(=O)c2cnc3c(c2)CC(=O)N3)CC1` [compound 47, N-((1r,4r)-4-aminocyclohexyl)-2-oxo-2,3-dihydro-1H-pyrrolo[2,3-b]pyridine-5-carboxamide], the IC50 turned out to be 11.9 µM. Still for that read-out and setting: the figure for `CC(NC(=O)c1ccncc1)C1CCN(C(=O)[C@H](C)N)CC1` (stereo partly drawn) [compound 138, N-(1-(1-(L-alanyl)piperidin-4-yl)ethyl)isonicotinamide] is over 100 µM; for `CC(=O)c1c[nH]c(C(=O)N[C@H]2CC[C@H](N)CC2)c1` [compound 64, 4-acetyl-N-((1r,4r)-4-aminocyclohexyl)-1H-pyrrole-2-carboxamide] it is 134 µM; for `C[C@@H](N)C(=O)NCCCCNC(=O)c1ccc2c(c1)CC(=O)N2` [compound 114, (R)-N-(4-(2-aminopropanamido)butyl)-2-oxoindoline-5-carboxamide] it is 22.3 µM.
